Test results reported in ChEMBL document CHEMBL4834423, “Discovery of AG-270, a First-in-Class Oral MAT2A Inhibitor for the Treatment of Tumors with Homozygous MTAP Deletion” (J Med Chem, 2021).

Columns and labels:
[1] = Protein binding in dog plasma assessed as unbound fraction; type: ADME, cell-free, Canis lupus familiaris
[2] = molecular target: T1, UDP-glucuronosyltransferase 1A1 (Homo sapiens, UniProt P22309); assay: Inhibition of UGT1A1 (unknown origin); type: ADME
T1 sequence (P22309 whole entry): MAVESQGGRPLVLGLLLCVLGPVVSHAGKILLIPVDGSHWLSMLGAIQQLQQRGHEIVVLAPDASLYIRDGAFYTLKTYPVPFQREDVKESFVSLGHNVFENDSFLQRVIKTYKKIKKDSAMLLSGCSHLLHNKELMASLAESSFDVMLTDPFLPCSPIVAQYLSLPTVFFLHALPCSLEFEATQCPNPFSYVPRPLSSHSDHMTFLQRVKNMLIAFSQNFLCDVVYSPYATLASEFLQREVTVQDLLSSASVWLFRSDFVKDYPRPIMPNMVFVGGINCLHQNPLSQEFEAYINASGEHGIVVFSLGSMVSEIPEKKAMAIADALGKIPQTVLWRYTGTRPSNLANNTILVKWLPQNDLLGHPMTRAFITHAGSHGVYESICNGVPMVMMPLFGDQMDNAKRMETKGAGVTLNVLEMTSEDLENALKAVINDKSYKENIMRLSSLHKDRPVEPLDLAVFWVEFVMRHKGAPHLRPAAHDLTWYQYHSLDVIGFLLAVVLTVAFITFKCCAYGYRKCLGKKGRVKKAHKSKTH

[3] = molecular target: T2, Solute carrier organic anion transporter family member 1B1 (Homo sapiens, UniProt Q9Y6L6); assay: Inhibition of OATP1B1 (unknown origin); type: ADME
T2 sequence (Q9Y6L6 whole entry): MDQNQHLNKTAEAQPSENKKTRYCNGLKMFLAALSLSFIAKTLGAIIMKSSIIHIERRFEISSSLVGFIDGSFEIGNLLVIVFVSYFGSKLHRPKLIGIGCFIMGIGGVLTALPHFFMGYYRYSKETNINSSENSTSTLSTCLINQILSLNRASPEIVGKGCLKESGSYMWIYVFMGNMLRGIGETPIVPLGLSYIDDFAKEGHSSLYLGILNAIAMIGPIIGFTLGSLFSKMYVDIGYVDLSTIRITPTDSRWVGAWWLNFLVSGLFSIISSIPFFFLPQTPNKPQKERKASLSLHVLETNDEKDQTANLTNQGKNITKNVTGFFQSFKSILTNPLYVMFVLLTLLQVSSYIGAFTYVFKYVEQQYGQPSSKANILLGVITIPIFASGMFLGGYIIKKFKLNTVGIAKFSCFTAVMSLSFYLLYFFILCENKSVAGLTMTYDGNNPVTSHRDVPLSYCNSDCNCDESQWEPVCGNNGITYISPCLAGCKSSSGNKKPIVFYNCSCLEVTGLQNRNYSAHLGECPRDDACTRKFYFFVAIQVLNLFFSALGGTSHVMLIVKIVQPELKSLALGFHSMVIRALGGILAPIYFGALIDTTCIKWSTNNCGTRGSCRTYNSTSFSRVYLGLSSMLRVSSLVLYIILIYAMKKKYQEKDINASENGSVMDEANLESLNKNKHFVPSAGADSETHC

[4] = Protein binding in monkey plasma assessed as unbound fraction; type: ADME, cell-free, Macaca mulatta; conditions: rhesus monkey

COc1ccc(-c2c(Nc3ccccn3)[nH]c3c(C4=CCCCC4)c(-c4ccccc4)nn3c2=O)cc1
fraction unbound [1]: 0.028 | IC50 [2]: 1100 nM | IC50 [3]: 2100 nM | fraction unbound [4]: 0.011
